From US20260234211A1, “POLYPEPTIDE HAVING MODIFIED STRUCTURE AND USE THEREOF” (Guangdong Raynovent Biotech Co., Ltd., priority 2023, published 2026)
pEC50: −log10 of the molar value. Where two headings read alike, the source gives them in different places. Blank lines part the entries; values can stand above or below the compound they belong to.

Experiments:
[1] = Pharmacokinetic properties in Cynomolgus macaques; conditions: cynomolgus monkey, in vivo, male cynomolgus macaques, plasma
Experimental: To test the pharmacokinetic profiles of the compounds in Cynomolgus macaques.
Non-juvenile male cynomolgus macaques were used for experiment, 3 cynomolgus macaques for each compound. Whole blood was collected at time points of 1 h, 2 h, 4 h, 8 h, 16 h, 24 h, 48 h, 72 h, 120 h, 168 h and 240 h after administration, to prepare plasma. The drug concentration was analyzed by LC-MS/MS method, and the pharmacokinetic parameters were calculated using Phoenix WinNonlin software.

[2] = molecular target: T1, GLP-1R (Homo sapiens, UniProt P43220); assay: In vitro GLP-1R agonistic activity test (cAMP, HEK293 cell line); format: cell-based
T1 construct: host or cells: HEK293
T1 sequence (P43220 24-463, species assumed): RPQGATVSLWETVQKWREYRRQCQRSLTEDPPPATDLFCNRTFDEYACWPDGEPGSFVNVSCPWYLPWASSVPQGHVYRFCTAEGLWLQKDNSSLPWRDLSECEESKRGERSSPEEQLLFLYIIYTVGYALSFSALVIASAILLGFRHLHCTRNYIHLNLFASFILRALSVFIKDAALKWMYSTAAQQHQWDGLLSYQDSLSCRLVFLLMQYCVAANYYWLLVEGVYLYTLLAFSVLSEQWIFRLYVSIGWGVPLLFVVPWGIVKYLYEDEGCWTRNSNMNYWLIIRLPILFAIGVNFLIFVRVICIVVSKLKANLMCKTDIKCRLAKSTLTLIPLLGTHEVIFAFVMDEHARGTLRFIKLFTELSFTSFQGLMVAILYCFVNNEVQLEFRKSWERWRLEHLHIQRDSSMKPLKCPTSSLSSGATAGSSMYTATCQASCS
Experimental: (§1) The cell lines were constructed by Pharmaron Inc. See details in the table below.
(§2) The test compounds were diluted at a 5-fold dilution factor in 10 points, starting from an initial concentration of 200 nM.
(§3) 1) The cell lines were cultured respectively in complete medium at 37° C. and 5% CO2.
(§4) 1) Eu-cAMP tracer was freeze-thawed and diluted 50 fold with detection buffer; and Ulight-anti-cAMP was freeze-thawed and diluted 150 fold with detection buffer.
(§5) 3) 10 μL of Eu-cAMP tracer was added and then 10 μL of Uligh-anti-cAMP was added into experimental wells respectively.
(§6) 4) The reaction plate was centrifuged at 200 g at room temperature for 30 s and left for stand at 25° C. for 1 h.

[3] = molecular target: T2, GCGR (Homo sapiens, UniProt P47871); assay: In vitro GCGR agonistic activity test (cAMP, HEK293 cell line); format: cell-based
T2 construct: host or cells: HEK293
T2 sequence (P47871 26-477, species assumed): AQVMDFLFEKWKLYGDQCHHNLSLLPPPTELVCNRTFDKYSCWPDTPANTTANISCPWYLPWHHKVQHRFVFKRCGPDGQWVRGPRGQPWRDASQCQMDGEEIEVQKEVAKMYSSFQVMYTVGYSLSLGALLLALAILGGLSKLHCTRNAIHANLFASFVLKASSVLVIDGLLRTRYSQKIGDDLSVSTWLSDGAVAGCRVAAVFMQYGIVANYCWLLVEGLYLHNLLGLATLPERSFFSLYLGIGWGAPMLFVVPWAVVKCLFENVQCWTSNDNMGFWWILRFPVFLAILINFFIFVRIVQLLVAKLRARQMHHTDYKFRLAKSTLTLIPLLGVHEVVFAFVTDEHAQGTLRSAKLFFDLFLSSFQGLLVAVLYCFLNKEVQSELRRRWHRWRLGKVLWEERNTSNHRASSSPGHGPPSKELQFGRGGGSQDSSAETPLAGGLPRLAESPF
Experimental: as §1, §2, §3
2) After digestion with TrypLE, the cells were re-suspended in experimental buffer respectively, and inoculated in a CulturPlate-384 cell culture plate at a density of 2000 cells/well and at a volume of 15 μL/well.
as §4
2) 5 μL of the test compounds were added respectively into experimental wells of the CulturPlate-384 cell culture plate, which was centrifuged at 200 g for 30 s, and left for stand at 37° C. for 30 min.
as §5, §6
5) Envision 2105 was used to collect data, with excitation light at 340 nm and emission light at 665 nm and 615 nm.

[4] = molecular target: T3, GIPR (Homo sapiens, UniProt P48546); assay: In vitro GIPR agonistic activity test (cAMP, CHO cell line); format: cell-based; conditions: CHO cells expressing GIPR, read-out: GIP-1 EC50
T3 construct: host or cells: CHO
T3 sequence (P48546 22-466): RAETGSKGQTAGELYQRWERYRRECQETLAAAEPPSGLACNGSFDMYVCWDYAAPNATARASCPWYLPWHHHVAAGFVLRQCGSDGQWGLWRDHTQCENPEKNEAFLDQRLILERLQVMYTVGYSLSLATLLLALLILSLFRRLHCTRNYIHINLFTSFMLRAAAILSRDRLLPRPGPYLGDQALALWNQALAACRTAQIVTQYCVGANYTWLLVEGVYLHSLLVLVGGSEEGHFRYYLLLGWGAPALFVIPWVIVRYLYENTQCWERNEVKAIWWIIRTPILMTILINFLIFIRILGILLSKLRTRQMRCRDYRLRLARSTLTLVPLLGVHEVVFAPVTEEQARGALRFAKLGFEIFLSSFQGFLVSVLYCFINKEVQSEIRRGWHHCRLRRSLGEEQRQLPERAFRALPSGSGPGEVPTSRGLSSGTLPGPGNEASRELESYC
Experimental: as §1, §2, §3, §4, §5, §6

[5] = Metabolic stability in human kidney S9; format: in vitro ADME; conditions: human, s9
Experimental: The metabolic stability of the compounds in human kidney was evaluated to determine whether the drugs would be degraded by metabolic enzymes in the kidney to affect the efficacies and pharmacokinetics. 1. Relevant solutions were formulated. 2. a) With cofactors (NADPH & UDPGA): NADPH and UDPGA were added during the incubation. […] H2O was added into the culture solution. The final concentration of KS9 Fractions was 1 mg/mL. The mixture was pre-heated at 37° C. for 10 min. […] In this study, 7-hydroxy-coumarin and Raloxifene were used as the positive control. The final concentration of the positive control compounds was 0.2 μM, and the final concentration of the test compound was 1 μM. The culture solution was incubated in water bath at 37° C. 4. At 0.5, 5, 15, 30 and 60 min, volume aliquots were taken from the reaction solution and the reaction was stopped by adding acetonitrile. The samples were centrifuged for 30 min. The supernatant was taken and mixed with ultrapure water for subsequent LC-MS/MS analysis. 5. Data analysis: All calculation was conducted using Microsoft Excel. Peak areas were determined and slope values were calculated based on the extracted ion chromatograms.

[6] = cAMP, HEK293 cells expressing GLP-1R, read-out: GLP-1 EC50
[7] = cAMP, HEK293 cells expressing GCGR, read-out: GCG EC50

SMILES: CC[C@H](C)[C@H](NC(=O)[C@H](Cc1ccccc1)NC(=O)[C@H](C)NC(=O)C(C)(C)NC(=O)[C@H](CCC(N)=O)NC(=O)[C@H](C)NC(=O)[C@@H]1CCCCNC(=O)CN(C(=O)COCCOCCNC(=O)[C@@H](N)CCCCNC(=O)CC[C@H](NC(=O)CCCCCCCCCCCCCCCCCCC(=O)O)C(=O)O)CC(=O)NCCCC[C@H](NC(=O)[C@](C)(CC(C)C)NC(=O)[C@@H](NC(=O)[C@H](CO)NC(=O)[C@H](Cc2ccc(O)cc2)NC(=O)[C@H](CC(=O)O)NC(=O)[C@H](CO)NC(=O)[C@@H](NC(=O)[C@H](Cc2ccccc2)NC(=O)[C@@H](NC(=O)CNC(=O)[C@H](CCC(N)=O)NC(=O)C(C)(C)NC(=O)[C@@H](N)Cc2ccc(O)cc2)[C@@H](C)O)[C@@H](C)O)[C@@H](C)CC)C(=O)N[C@@H](CC(=O)O)C(=O)N[C@@H](CCCCN)C(=O)N1)C(=O)N[C@@H](CCC(=O)O)C(=O)N[C@@H](Cc1ccc(O)cc1)C(=O)N[C@@H](CC(C)C)C(=O)N[C@@H](CC(C)C)C(=O)N[C@@H](CCC(=O)O)C(=O)NCC(=O)NCC(=O)N1CCC[C@H]1C(=O)N[C@@H](CO)C(=O)N[C@@H](CO)C(=O)NCC(=O)N[C@@H](C)C(=O)N1CCC[C@H]1C(=O)N1CCC[C@H]1C(=O)N1CCC[C@H]1C(=O)N[C@@H](CO)C(N)=O [Example 52, YAibQGT FTSDY SIα- MeL^1KD K^1KAQAib AFIEY LLEGG PSSGA PPPS-NH2 (SEQ ID NO: 24)]
AUC(0-t) ([1]; read-out: AUC0-240 h): 5.23 µM·h
AUC(0-inf) ([1]; read-out: AUCINF): 6.61 µM·h
Cmax ([1]; read-out: Cmax): 36.2 nM
half-life ([1]; read-out: T1/2 (converted)): 97.8 h
Tmax ([1]; read-out: Tmax): 29.3 h
pEC50 [2]: 11.52
pEC50 [3]: 10.60

pEC50 [4]: 12.00
half-life at 1 μM [5]: > 3.08 h
microsomal CLint at 1 μM [5]: < 3.75 µL/min/mg
pEC50 [2, 6]: 11.05
SMILES: CC[C@H](C)[C@H](NC(=O)[C@H](Cc1ccccc1)NC(=O)[C@@H]1CCCCNC(=O)CN(C(=O)COCCOCCNC(=O)COCCOCCNC(=O)CC[C@H](NC(=O)CCCCCCCCCCCCCCCCCCC(=O)O)C(=O)O)CC(=O)NCCCC[C@H](NC(=O)[C@H](CCCCN)NC(=O)[C@H](CC(=O)O)NC(=O)[C@H](CC(C)C)NC(=O)[C@](C)(CC(C)C)NC(=O)[C@@H](NC(=O)[C@H](CO)NC(=O)[C@H](Cc2ccc(O)cc2)NC(=O)[C@H](CC(=O)O)NC(=O)[C@H](CO)NC(=O)[C@@H](NC(=O)[C@H](Cc2ccccc2)NC(=O)[C@@H](NC(=O)CNC(=O)[C@H](CCC(N)=O)NC(=O)C(C)(C)NC(=O)[C@@H](N)Cc2ccc(O)cc2)[C@@H](C)O)[C@@H](C)O)[C@@H](C)CC)C(=O)N[C@@H](C)C(=O)N[C@@H](CCC(N)=O)C(=O)NC(C)(C)C(=O)N1)C(=O)N[C@@H](CCC(=O)O)C(=O)N[C@@H](Cc1ccc(O)cc1)C(=O)N[C@@H](CC(C)C)C(=O)N[C@@H](CC(C)C)C(=O)N[C@@H](CCC(=O)O)C(=O)NCC(=O)NCC(=O)N1CCC[C@H]1C(=O)N[C@@H](CO)C(=O)N[C@@H](CO)C(=O)NCC(=O)N[C@@H](C)C(=O)N1CCC[C@H]1C(=O)N1CCC[C@H]1C(=O)N1CCC[C@H]1C(=O)N[C@@H](CO)C(N)=O [Example 1, YAibQGT FTSDY SIα- MeLLD K^1KAQAib ^1KFIEY LLEGG PSSGA PPPS-NH2 (SEQ ID NO: 1)]

pEC50 [2, 6]: 11.15
pEC50 [3, 7]: 10.60
SMILES: CC[C@H](C)[C@H](NC(=O)[C@H](Cc1ccccc1)NC(=O)[C@H](C)NC(=O)C(C)(C)NC(=O)[C@H](CCC(N)=O)NC(=O)[C@H](C)NC(=O)[C@@H]1CCCCNC(=O)CN(C(=O)COCCOCCNC(=O)CC[C@H](NC(=O)CCCCCCCCCCCCCCCCCCC(=O)O)C(=O)O)CC(=O)NCCCC[C@H](NC(=O)[C@](C)(CC(C)C)NC(=O)[C@@H](NC(=O)[C@H](CO)NC(=O)[C@H](Cc2ccc(O)cc2)NC(=O)[C@H](CC(=O)O)NC(=O)[C@H](CO)NC(=O)[C@@H](NC(=O)[C@H](Cc2ccccc2)NC(=O)[C@@H](NC(=O)CNC(=O)[C@H](CCC(N)=O)NC(=O)C(C)(C)NC(=O)[C@@H](N)Cc2ccc(O)cc2)[C@@H](C)O)[C@@H](C)O)[C@@H](C)CC)C(=O)N[C@@H](CC(=O)O)C(=O)N[C@@H](CCCCN)C(=O)N1)C(=O)N[C@@H](CCC(N)=O)C(=O)N[C@@H](Cc1ccc(O)cc1)C(=O)N[C@@H](CC(C)C)C(=O)N[C@@H](CC(C)C)C(=O)N[C@@H](CCC(=O)O)C(=O)NCC(=O)NCC(=O)N1CCC[C@H]1C(=O)N[C@@H](CO)C(=O)N[C@@H](CO)C(=O)NCC(=O)N[C@@H](C)C(=O)N1CCC[C@H]1C(=O)N1CCC[C@H]1C(=O)N1CCC[C@H]1C(=O)N[C@@H](CO)C(N)=O [Example 42, YAibQGT FTSDY SIα- MeL^1KD K^1KAQAib AFIQY LLEGG PSSGA PPPS-NH2 (SEQ ID NO: 39)]

pEC50 [2, 6]: 12.00
pEC50 [3, 7]: 10.60
SMILES: CC[C@H](C)[C@H](NC(=O)[C@H](Cc1ccccc1)NC(=O)[C@H](C)NC(=O)C(C)(C)NC(=O)[C@H](CCC(N)=O)NC(=O)[C@H](C)NC(=O)[C@@H]1CCCCNC(=O)CN(C(=O)COCCOCCNC(=O)CC[C@H](NC(=O)CCCCCCCCCCCCCCCCCCC(=O)O)C(=O)O)CC(=O)NCCCC[C@H](NC(=O)[C@](C)(CC(C)C)NC(=O)[C@@H](NC(=O)[C@H](CO)NC(=O)[C@H](Cc2ccc(O)cc2)NC(=O)[C@H](CC(=O)O)NC(=O)[C@H](CO)NC(=O)[C@@H](NC(=O)[C@](C)(Cc2ccccc2)NC(=O)[C@@H](NC(=O)CNC(=O)[C@H](CCC(N)=O)NC(=O)C(C)(C)NC(=O)[C@@H](N)Cc2ccc(O)cc2)[C@@H](C)O)[C@@H](C)O)[C@@H](C)CC)C(=O)N[C@@H](CC(=O)O)C(=O)N[C@@H](CCCCN)C(=O)N1)C(=O)N[C@@H](CCC(=O)O)C(=O)N[C@@H](Cc1ccc(O)cc1)C(=O)N[C@@H](CC(C)C)C(=O)N[C@@H](CC(C)C)C(=O)N[C@@H](CCCCN)C(=O)NCC(=O)NCC(=O)N1CCC[C@H]1C(=O)N[C@@H](CO)C(=O)N[C@@H](CO)C(=O)NCC(=O)N[C@@H](C)C(=O)N1CCC[C@H]1C(=O)N1CCC[C@H]1C(=O)N1CCC[C@H]1C(=O)N[C@@H](CO)C(N)=O [Example 51, YAibQGT α-MeFTSDY SIα- MeL^1KD K^1KAQAib AFIEY LLKGG PSSGA PPPS-NH2 (SEQ ID NO: 43)]
